Reference: publication PMC8767159, “Multiparameter Optimization of Trypanocidal Cruzain Inhibitors With In Vivo Activity and Favorable Pharmacokinetics” (Frontiers in Pharmacology, 2022)

Columns and labels:
[1] = Cytotoxicity MTS assay in HFF-1 fibroblasts; assay type: cell-based; conditions: human HFF-1 fibroblasts
Protocol: The synthesized compounds were evaluated for their cytotoxicity against HFF-1 cells using the MTS assay (Promega, Madison, WI) ([Barltrop et al., 1991]) as previously described ([Ferreira et al., 2019]). HFF-1 fibroblasts were plated at 2 × 10^3/well in 96-well culture plates in RPMI 1640 without phenol red enriched with 10% FCS and incubated overnight at 37°C and 5% CO2. Next, 7 concentrations (0.1–100 µM) of the compounds were added in 3-fold serial dilutions, each concentration in triplicate, and the plates were incubated for 72 h at 37°C and 5% CO2. Next, 20 µl of MTS was added to each well, and the plates were incubated for an additional 4 h at 37°C and 5% CO2. The absorbance was measured at 490 nm using a spectrophotometer, and the data were transferred to SigmaPlot 10.0 (Systat Software Inc., Erkrath, Germany) to determine the IC50 values. Doxorubicin (Sigma–Aldrich) was used as a positive control, and untreated wells (100% growth) were used as negative controls in all plates. All compounds were tested in two independent assays.

[2] = In vitro metabolic stability in human liver microsomes; assay type: in vitro ADME; conditions: for CLint (L/h/kg) Human: Table S5; for CLint_u (L/h/kg) Human: Table S5, CLint/fu
Protocol: (§1) Isolated mouse (BD Gentest, Bedford, MA) and human liver microsomes (XenoTech, Kansas City, KS) ([Plant, 2004]) were added at a final concentration of 0.25 mg/ml to a solution containing 40 mM dibasic potassium phosphate and 10 mM monobasic potassium phosphate. Stock solutions of compounds at 5 mM were prepared in 100% DMSO. A 50:50 quenching solution of acetonitrile (ACN) and methanol (MeOH) was prepared. An NADPH solution was prepared at 10 mM. The preparations containing the microsomes were added to each well of the incubation plate (450 µl), which was then heated to 37°C for 10 min. The compounds were added to the respective wells of the test plate (2 µl). Then, 300 µl of the microsome preparation was added to each well of the test plate. The test plate was heated under gentle rotation for 5 min at 37°C. Next, 90 µl of the mixture contained in the test plate was added to the incubation plate, making a final volume of 540 µl. Samples were collected at the following incubation times: 0, 5, 10, 15, 20, and 30 min. To the 0 min sample plate, quenching solution (180 µl), NADPH (6 µl), and the incubation plate mixture (54 µl) were added to each well. The sample plate was then sealed, homogenized, and stored at 4°C. Then, 54 µl of the NADPH solution was added to the incubation plate, which was homogenized. Before the collection of each sample at the established times, 45 µl of the quenching solution was added to each well of the corresponding sample plates. After reaching the incubation times, 60 µl of the mixture contained in the incubation plate was added to the corresponding sample plates. The sample plates were then sealed and stored at 4°C. After the collection of the last sample (30 min), all sample plates were centrifuged at 3,800 rpm for 30 min. The supernatant from each well was collected and transferred to clean plates for mass spectrometry. Five to 10 µl of each sample was injected into an AB Sciex Triple Quad 5500 LC-MS/MS instrument.
(§2) For the biotransformation experiments and analysis of metabolites in microsomes, an Ultra-High-Pressure Liquid Chromatography instrument (UHPLC, Thermo Accela, Waltham, MA) ([Spaggiari et al., 2014]) connected to an automatic sample injector and a 1250 series pump was used. The UHPLC system was connected to a Thermo Fisher (Waltham, MA) LTQ Orbitrap mass spectrometer. For all other analyses, an AB Sciex Triple Quad 5500 coupled to a UHPLC equipped with a UV 1290 diode detector (Agilent Technologies, Santa Clara, CA) and a CTC PAL self-collecting system (LEAP Technologies, Carrboro, NC) was used. Q1 MS positive ion mode (300–500 Da) was used to detect the ions of the parent compounds. The UV detector was operated in spectral mode (250–280 nm). A Hypersil Gold C18 (2.1 mm × 100 mm, 1.9 µm, Thermo Fisher) HPLC column was used. The mobile phases were solvent A (0.1% formic acid in water) and solvent B (0.1% formic acid in ACN). The flow was adjusted to 0.55 ml/min, and the injection volume was adjusted to […]. The gradient started with 1% solvent B for 0.4 min, reached 40% (solvent B) in 2.3 min and 95% (solvent B) in 0.67 min, was maintained for 0.5 min, and returned to the initial condition of 1%. This condition was maintained for 1 min before injection of the next sample. The peak area ratio (peak area of the test compounds/peak area of the control compounds) was converted to the percentage of remaining compound, with the 0 min time point ratio set to 100%. T½ and CLint were calculated from the percentage of remaining compound versus the incubation time. From the resulting function, the slope (k) was determined. The equations T1/2 (min) = ln(2)/k and CLint in vitro (μL/min/mg) = k*1000/0.25 were used to determine T½ and CLint.

[3] = In vitro metabolic stability in mouse liver microsomes; assay type: in vitro ADME; conditions: for CLint (L/h/kg) Mouse: Table S5; for CLint_u (L/h/kg) Mouse: Table S5, CLint/fu
Protocol: as §1, §2

[4] = Fraction unbound by equilibrium dialysis; assay type: in vitro ADME; conditions: Table S5; fraction unbound
Protocol: The fraction unbound (fu) ([Masimirembwa et al., 2003]) of the test compounds was determined after incubation with different media, namely, plasma, microsomes, and buffer with 10% FCS. Equilibrium dialysis was performed in a 96-well plate (HT-Dialysis, Gales Ferry, CT) in which each well was divided by a semipermeable membrane (12–14 kDa cutoff). The test compounds diluted in either plasma, microsome suspension, or buffer were added to one side of the membrane. Potassium phosphate buffer (50 mM, pH 7.4) was added to the other side of the membrane. A standard curve was used to calculate the compound concentration (fu) on each side of the membrane. Stock solutions of each compound were prepared in 100% DMSO to obtain a final concentration of 1 mM. The following compound concentrations were used: 1, 2, 20, 200, 2,000 and 5,000 nM. To 500 μl of medium, 0.5 μl of the compound stock solution was added, and this was applied to one side of the well. Each compound was evaluated in triplicate. Next, the plate was assembled, sealed, and incubated at 37°C under rotation (150 rpm) for 4 h. After the incubation period, the plates were subjected to LC-MS/MS.

Compound	CLint (L/h/kg) Human [2] [L/h/kg]	CLint_u (L/h/kg) Human [2]	CLint (L/h/kg) Mouse [3] [L/h/kg]	CLint_u (L/h/kg) Mouse [3]	fu [4]	IC50 at 72 h [1] [nM]
COc1cccc2c1C(=O)c1c(O)c3c(c(O)c1C2=O)C[C@@](O)(C(=O)CO)C[C@@H]3O[C@H]1C[C@H](N)[C@H](O)[C@H](C)O1 [Doxorubicin, reference compound]	–	–	–	–	–	260
O=C(COc1ccc2ccccc2c1CO)NCCc1nc2ccccc2[nH]1 [Compound 46]	24.70	32.04 L/h/kg	757.00	981.84 L/h/kg	0.77	–
O=C(COc1ccc2ccccc2c1O)NCCc1nc2ccccc2[nH]1 [Compound 47]	–	35.00 L/h/kg	655.00	939.71 L/h/kg	0.72	–
O=C(COc1ccccc1F)NCCc1nc2ccccc2[nH]1 [Compound 39]	7.03	7.45 L/h/kg	125.00	132.56 L/h/kg	0.94	–
O=C(COc1cccc2ccccc12)NCCc1nc2ccccc2[nH]1 [Compound 44]	23.80	70.62 L/h/kg	504.00	1,495.55 L/h/kg	0.34	–
O=C(COc1ccccc1I)NCCc1nc2ccccc2[nH]1 [Compound 41]	39.40	62.44 L/h/kg	683.00	1,082.41 L/h/kg	0.63	–

The next lines start with results.

CLint (L/h/kg) Human [2] [L/h/kg]	CLint_u (L/h/kg) Human [2]	CLint (L/h/kg) Mouse [3] [L/h/kg]	CLint_u (L/h/kg) Mouse [3]	fu [4]	Compound	IC50 at 72 h [1] [nM]
72.40	404.47 L/h/kg	500.00	2,793.30 L/h/kg	0.18	COc1ccc2[nH]c(CCNC(=O)COc3ccc4ccccc4c3Br)nc2c1 [Compound 53]	–
155.00	194.48 L/h/kg	485.00	608.53 L/h/kg	0.79	Cc1cc(C)c(C#N)c(SCC(=O)NCCc2c[nH]c3ccccc23)n1 [Compound 60]	–
125.00	5,186.72 L/h/kg	331.00	–	0.02	COc1cccc(C(=O)CCn2c(CCNC(=O)COc3ccc4ccccc4c3Br)nc3ccccc32)c1 [Compound 62]	–
35.40	65.56 L/h/kg	618.00	1,144.44 L/h/kg	0.54	O=C(COc1ccc2ccccc2c1)NCCc1nc2ccccc2o1 [Compound 51]	–
157.00	3,634.26 L/h/kg	355.00	–	0.04	O=C(COc1ccc2ccccc2c1Br)NCCc1nc2ccccc2n1CCC(=O)c1cccs1 [Compound 61]	–
23.60	38.63 L/h/kg	790.00	1,292.96 L/h/kg	0.61	Cc1ccccc1OCC(=O)NCCc1c[nH]c2ccccc12 [Compound 50]	–
